Assay results as given in ChEMBL document CHEMBL4190187, “Discovery of pyrazolopyrimidine derivatives as novel inhibitors of ataxia telangiectasia and rad3 related protein (ATR)” (Bioorg Med Chem Lett, 2017).

Experiments:
[1] = target: High affinity nerve growth factor receptor (Homo sapiens) (UniProt P04629); experiment: Inhibition of recombinant human TrkA (440 to end residues) at 1 uM using KKKSPGEYVNIEFG as substrate after 40 mins in presence of [gamma-33P]ATP by scintillation counting method
[2] = target: Serine/threonine-protein kinase SIK2 (Homo sapiens) (UniProt Q9H0K1); experiment: Inhibition of recombinant human SIK2 (1 to 276 residues) at 1 uM using KKKVSRSGLYRSPSMPENLNRPR as substrate after 40 mins in presence of [gamma-33P]ATP by scintillation counting method
[3] = test system: Epidermal growth factor receptor (Homo sapiens), P00533 [L858R]; experiment: Inhibition of recombinant human EGFR L858R mutant (696 to end residues) at 1 uM using poly(Glu,Tyr) 4:1 as substrate after 40 mins in presence of [gamma-33P]ATP by scintillation counting method
[4] = target: Bone morphogenetic protein receptor type-1B (Homo sapiens) (UniProt O00238); experiment: Inhibition of recombinant human ALK6 (148 to end residues) at 1 uM using casein as substrate after 40 mins in presence of [gamma-33P]ATP by scintillation counting method
[5] = target: Receptor-interacting serine/threonine-protein kinase 1 (Homo sapiens) (UniProt Q13546); experiment: Inhibition of recombinant human RIPK1 (8 to 322 residues) at 1 uM using myelin basic protein as substrate after 120 mins in presence of [gamma-33P]ATP by scintillation counting method
[6] = target: Inhibitor of nuclear factor kappa-B kinase subunit epsilon (Homo sapiens) (UniProt Q14164); experiment: Inhibition of recombinant full-length human IKKepsilon at 1 uM using casein as substrate after 40 mins in presence of [gamma-33P]ATP by scintillation counting method
[7] = target: Serine/threonine-protein kinase 3 (Homo sapiens) (UniProt Q13188); experiment: Inhibition of recombinant human MST2 (2 to end residues) at 1 uM using myelin basic protein as substrate after 40 mins in presence of [gamma-33P]ATP by scintillation counting method
Chain of Serine/threonine-protein kinase 3 (Homo sapiens) (Q13188 whole entry): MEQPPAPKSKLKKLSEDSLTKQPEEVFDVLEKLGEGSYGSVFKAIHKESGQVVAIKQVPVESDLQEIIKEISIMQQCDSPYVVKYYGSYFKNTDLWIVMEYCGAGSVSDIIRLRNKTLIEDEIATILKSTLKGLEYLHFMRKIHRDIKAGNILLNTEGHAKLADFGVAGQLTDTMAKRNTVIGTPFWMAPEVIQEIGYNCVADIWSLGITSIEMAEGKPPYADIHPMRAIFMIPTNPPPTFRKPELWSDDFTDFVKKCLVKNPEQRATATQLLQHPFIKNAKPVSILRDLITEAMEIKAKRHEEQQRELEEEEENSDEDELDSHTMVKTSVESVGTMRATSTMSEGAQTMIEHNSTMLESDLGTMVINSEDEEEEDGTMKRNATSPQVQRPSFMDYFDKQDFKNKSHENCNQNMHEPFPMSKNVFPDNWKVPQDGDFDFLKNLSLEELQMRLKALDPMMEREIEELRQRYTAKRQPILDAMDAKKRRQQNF

Mus musculus = experiment: Clearance in mouse at 2 mg/kg, iv or 10 mg/kg, po; format: ADME, organism-based; settings: in vivo
[8] = target: Serine/threonine-protein kinase PAK 5 (Homo sapiens) (UniProt Q9P286); experiment: Inhibition of recombinant human PAK5 (425 to end residues) at 1 uM using RRRLSFAEPG as substrate after 40 mins in presence of [gamma-33P]ATP by scintillation counting method
[9] = test system: Tyrosine-protein kinase ABL1 (Homo sapiens), P00519 [Q252H]; experiment: Inhibition of recombinant human Abl Q252H mutant (27 to end residues) at 1 uM using EAIYAAPFAKKK as substrate after 40 mins in presence of [gamma-33P]ATP by scintillation counting method
[10] = target: Mitogen-activated protein kinase kinase kinase 7 (Homo sapiens) (UniProt O43318); experiment: Inhibition of recombinant human TAK1 (1 to 303 residues) at 1 uM using casein as substrate after 40 mins in presence of [gamma-33P]ATP by scintillation counting method
Chain of Mitogen-activated protein kinase kinase kinase 7 (Homo sapiens) (O43318 whole entry, the tested form may be a part): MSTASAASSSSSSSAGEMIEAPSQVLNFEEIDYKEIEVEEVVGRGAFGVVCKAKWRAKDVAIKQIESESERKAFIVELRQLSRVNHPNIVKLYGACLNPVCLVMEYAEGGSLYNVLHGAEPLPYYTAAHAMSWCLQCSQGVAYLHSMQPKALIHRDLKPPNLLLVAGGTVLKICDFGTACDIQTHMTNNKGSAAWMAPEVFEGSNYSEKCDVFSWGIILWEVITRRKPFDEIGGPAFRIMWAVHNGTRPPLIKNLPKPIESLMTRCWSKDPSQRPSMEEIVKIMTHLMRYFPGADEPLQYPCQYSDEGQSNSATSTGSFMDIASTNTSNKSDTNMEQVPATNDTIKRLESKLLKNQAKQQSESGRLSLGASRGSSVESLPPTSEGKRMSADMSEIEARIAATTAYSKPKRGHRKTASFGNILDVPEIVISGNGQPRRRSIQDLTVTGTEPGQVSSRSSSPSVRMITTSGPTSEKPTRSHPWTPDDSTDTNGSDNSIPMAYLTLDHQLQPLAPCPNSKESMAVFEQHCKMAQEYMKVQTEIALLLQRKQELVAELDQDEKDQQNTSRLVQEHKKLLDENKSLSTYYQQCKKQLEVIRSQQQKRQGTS

[11] = target: CDK7/Cyclin H/MNAT1 (Homo sapiens) (UniProt P51946+P50613+P51948); experiment: Inhibition of recombinant full-length human CDK7/CyclinH/MAT1 at 1 uM using peptide as substrate after 40 mins in presence of [gamma-33P]ATP by scintillation counting method; format: protein-complex assay
[12] = target: Non-receptor tyrosine-protein kinase TYK2 (Homo sapiens) (UniProt P29597); experiment: Inhibition of recombinant human TYK2 (875 to end residues) at 1 uM using GGMEDIYFEFMGGKKK as substrate after 40 mins in presence of [gamma-33P]ATP by scintillation counting method
[13] = test system: Receptor-type tyrosine-protein kinase FLT3 (Homo sapiens), P36888 [D835Y]; experiment: Inhibition of recombinant human Flt3 D835Y mutant (564 to end residues) at 1 uM using EAIYAAPFAKKK as substrate after 40 mins in presence of [gamma-33P]ATP by scintillation counting method
[14] = target: Hepatocyte growth factor receptor (Homo sapiens) (UniProt P08581); experiment: Inhibition of recombinant human Met (974 to end residues) at 1 uM using KKKGQEEEYVFIE as substrate after 40 mins in presence of [gamma-33P]ATP by scintillation counting method
[15] = target: CDK12/Cyclin K (Homo sapiens) (UniProt O75909+Q9NYV4); experiment: Inhibition of recombinant full-length human CDK12/Cyclin K at 1 uM using RSRSRSRSRSRSRSR as substrate after 120 mins in presence of [gamma-33P]ATP by scintillation counting method; format: protein-complex assay
Chain of CDK12/Cyclin K (Homo sapiens) (O75909 whole entry, looked up): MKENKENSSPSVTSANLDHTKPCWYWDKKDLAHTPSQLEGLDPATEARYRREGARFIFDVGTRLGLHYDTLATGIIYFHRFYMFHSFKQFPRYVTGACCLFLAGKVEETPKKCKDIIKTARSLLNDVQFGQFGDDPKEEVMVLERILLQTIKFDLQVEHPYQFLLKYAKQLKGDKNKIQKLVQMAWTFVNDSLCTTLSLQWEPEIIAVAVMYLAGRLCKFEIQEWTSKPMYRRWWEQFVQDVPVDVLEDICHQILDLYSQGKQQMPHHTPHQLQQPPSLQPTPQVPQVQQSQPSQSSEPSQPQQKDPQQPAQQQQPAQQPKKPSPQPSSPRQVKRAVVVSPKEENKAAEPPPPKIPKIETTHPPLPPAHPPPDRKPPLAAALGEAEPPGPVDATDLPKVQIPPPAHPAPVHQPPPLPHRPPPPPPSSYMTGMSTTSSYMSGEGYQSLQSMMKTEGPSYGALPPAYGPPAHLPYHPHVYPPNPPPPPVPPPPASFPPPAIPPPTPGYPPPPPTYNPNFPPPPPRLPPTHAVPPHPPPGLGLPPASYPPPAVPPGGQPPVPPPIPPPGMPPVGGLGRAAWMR
Chain of CDK12/Cyclin K (Homo sapiens) (Q9NYV4 whole entry, looked up): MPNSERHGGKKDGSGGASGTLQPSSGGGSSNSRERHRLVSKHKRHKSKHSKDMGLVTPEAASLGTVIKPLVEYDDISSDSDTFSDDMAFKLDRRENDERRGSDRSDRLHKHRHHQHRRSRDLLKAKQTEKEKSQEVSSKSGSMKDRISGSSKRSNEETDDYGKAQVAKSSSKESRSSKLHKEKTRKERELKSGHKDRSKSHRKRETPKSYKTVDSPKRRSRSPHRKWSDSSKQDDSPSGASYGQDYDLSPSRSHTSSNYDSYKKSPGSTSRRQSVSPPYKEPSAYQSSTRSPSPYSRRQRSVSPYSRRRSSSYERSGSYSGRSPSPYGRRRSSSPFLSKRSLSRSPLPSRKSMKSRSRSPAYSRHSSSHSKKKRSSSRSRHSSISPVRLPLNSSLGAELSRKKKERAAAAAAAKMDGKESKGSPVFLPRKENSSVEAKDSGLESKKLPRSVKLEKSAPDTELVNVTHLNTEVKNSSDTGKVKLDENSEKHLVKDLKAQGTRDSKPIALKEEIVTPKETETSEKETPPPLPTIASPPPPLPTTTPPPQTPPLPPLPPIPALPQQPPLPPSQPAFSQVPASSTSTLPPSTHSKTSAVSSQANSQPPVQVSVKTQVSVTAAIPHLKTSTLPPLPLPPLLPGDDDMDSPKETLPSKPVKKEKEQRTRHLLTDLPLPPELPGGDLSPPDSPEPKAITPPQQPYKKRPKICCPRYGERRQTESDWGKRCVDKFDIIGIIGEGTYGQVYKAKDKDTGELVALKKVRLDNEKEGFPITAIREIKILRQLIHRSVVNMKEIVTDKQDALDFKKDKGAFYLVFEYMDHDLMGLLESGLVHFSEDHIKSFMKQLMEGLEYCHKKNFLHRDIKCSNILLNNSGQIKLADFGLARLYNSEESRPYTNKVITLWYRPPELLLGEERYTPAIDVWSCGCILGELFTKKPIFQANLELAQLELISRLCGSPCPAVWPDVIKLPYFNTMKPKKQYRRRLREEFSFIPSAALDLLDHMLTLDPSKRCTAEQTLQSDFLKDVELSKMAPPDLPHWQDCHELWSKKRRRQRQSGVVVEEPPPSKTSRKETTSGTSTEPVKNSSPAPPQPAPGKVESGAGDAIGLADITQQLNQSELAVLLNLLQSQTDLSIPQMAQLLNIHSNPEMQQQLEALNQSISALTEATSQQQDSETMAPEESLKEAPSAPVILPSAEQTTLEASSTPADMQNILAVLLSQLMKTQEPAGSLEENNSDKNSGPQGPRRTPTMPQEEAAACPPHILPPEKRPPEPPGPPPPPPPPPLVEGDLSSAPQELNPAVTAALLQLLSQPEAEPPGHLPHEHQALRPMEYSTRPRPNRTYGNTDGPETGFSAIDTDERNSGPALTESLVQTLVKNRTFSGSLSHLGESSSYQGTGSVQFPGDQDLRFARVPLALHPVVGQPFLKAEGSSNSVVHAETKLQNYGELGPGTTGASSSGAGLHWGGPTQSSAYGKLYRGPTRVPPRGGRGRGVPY

[16] = target: Glycogen synthase kinase-3 alpha (Homo sapiens) (UniProt P49840); experiment: Inhibition of recombinant human GSK3alpha (2 to end residues) at 1 uM using YRRAAVPPSPSLSRHSSPHQS(p)EDEEE (phospho GS2 peptide) as substrate after 40 mins in presence of [gamma-33P]ATP by scintillation counting method
[17] = target: Protein kinase C theta type (Homo sapiens) (UniProt Q04759); experiment: Inhibition of recombinant full-length human PKCtheta at 1 uM using histone H1 as substrate after 40 mins in presence of [gamma-33P]ATP by scintillation counting method
[18] = target: Tyrosine-protein kinase JAK1 (Homo sapiens) (UniProt P23458); experiment: Inhibition of recombinant human JAK1 (866 to end residues) at 1 uM using GEEPLYWSFPAKKK as substrate after 40 mins in presence of [gamma-33P]ATP by scintillation counting method
[19] = target: Protein kinase C delta type (Homo sapiens) (UniProt Q05655); experiment: Inhibition of recombinant human PKCdelta (2 to end residues) at 1 uM using ERMRPRKRQGSVRRRV as substrate after 40 mins in presence of [gamma-33P]ATP by scintillation counting method
Chain of Protein kinase C delta type (Homo sapiens) (Q05655 whole entry, looked up): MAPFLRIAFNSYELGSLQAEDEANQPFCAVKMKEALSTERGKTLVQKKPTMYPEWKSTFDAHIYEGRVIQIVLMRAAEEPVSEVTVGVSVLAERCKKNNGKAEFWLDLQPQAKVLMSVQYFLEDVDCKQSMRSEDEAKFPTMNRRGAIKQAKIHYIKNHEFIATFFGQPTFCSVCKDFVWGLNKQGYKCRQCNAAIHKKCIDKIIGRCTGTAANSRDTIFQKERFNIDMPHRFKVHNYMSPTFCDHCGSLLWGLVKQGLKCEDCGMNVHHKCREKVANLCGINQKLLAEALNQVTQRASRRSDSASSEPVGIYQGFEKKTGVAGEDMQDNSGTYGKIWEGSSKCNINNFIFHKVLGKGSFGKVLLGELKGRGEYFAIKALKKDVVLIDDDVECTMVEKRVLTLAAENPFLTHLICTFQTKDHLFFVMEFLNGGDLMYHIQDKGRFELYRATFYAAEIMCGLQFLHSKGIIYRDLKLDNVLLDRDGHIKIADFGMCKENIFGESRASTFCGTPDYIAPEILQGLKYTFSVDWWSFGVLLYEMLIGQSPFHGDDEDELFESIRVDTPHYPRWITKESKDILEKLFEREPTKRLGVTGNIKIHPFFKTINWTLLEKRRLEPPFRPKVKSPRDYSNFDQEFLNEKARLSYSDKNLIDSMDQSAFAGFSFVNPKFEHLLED

[20] = target: Serine/threonine-protein kinase pim-3 (Homo sapiens) (UniProt Q86V86); experiment: Inhibition of recombinant human PIM3 (2 to end residues) at 1 uM using RSRHSSYPAGT as substrate after 40 mins in presence of [gamma-33P]ATP by scintillation counting method
[21] = target: Serine/threonine-protein kinase tousled-like 2 (Homo sapiens) (UniProt Q86UE8); experiment: Inhibition of recombinant human TLK2 (387 to end residues) at 1 uM using casein as substrate after 40 mins in presence of [gamma-33P]ATP by scintillation counting method
[22] = target: Serine/threonine-protein kinase Nek9 (Homo sapiens) (UniProt Q8TD19); experiment: Inhibition of recombinant human NEK9 (1 to 324 residues) at 1 uM using myelin basic protein as substrate after 40 mins in presence of [gamma-33P]ATP by scintillation counting method
[23] = target: Serine/threonine-protein kinase 25 (Homo sapiens) (UniProt O00506); experiment: Inhibition of recombinant human STK25 (1 to 308 residues) at 1 uM using RLGRDKYKTLRQIRQ as substrate after 40 mins in presence of [gamma-33P]ATP by scintillation counting method
Chain of Serine/threonine-protein kinase 25 (Homo sapiens) (O00506 whole entry, looked up, the tested form may be a part): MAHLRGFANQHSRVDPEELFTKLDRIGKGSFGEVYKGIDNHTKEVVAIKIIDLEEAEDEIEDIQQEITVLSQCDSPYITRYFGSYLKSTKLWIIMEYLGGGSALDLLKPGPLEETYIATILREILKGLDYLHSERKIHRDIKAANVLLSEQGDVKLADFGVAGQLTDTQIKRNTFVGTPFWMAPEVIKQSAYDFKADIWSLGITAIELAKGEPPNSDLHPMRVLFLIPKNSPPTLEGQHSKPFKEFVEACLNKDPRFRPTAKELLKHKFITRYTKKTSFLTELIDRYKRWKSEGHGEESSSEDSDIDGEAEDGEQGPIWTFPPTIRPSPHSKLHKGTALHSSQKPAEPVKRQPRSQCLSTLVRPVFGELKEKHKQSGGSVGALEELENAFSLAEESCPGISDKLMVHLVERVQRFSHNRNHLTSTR

CS(=O)(=O)c1ccc(-n2nc(-c3cnc4[nH]ccc4c3)c3c(N)ncnc32)cc1
inhibition [1]: 2% | inhibition [2]: 21% | inhibition [3]: 5% | inhibition [4]: 18% | inhibition [5]: 18% | inhibition [6]: 3% | inhibition [7]: 8% | CL (Mus musculus): 1.33 L/h/kg | inhibition [8]: 20% | inhibition [9]: 70% | inhibition [10]: -3% | inhibition [11]: 7% | inhibition [12]: 8% | inhibition [13]: 37% | inhibition [14]: -4% | inhibition [15]: -5% | inhibition [16]: 17% | inhibition [17]: 5% | inhibition [18]: 36% | inhibition [19]: 1% | inhibition [20]: -1% | inhibition [21]: 0% | inhibition [22]: 11% | inhibition [23]: 45%
